Test results taken from US6468537B1, “Localization of major peptide autoepitopes for nucleosome specific T cells of systemic lupus erythematosus” (The Board of Trustees of Northwestern University, priority 1999, dated 2002).

Experiments:
[1] = system: short-term CD4+ T cell lines; test: IL-2 production by short-term CD4+ T cell lines in response to histone peptides (pepscan); format: cell-based, human
Procedure: Short-term T cell lines were rapidly thawed from liquid nitrogen and expanded in the presence of plate-bound anti-CD3 mAb, anti-CD28 mAb, and rIL-2 (20 units per milliliter). The expanded cells were transferred to fresh culture wells and rested by incubating in fresh medium for 10 to 14 days. For stimulation assays, 96 well plates were coated with 2 micrograms per milliliter of goat anti-mouse IgG antibodies overnight at 37° C. After washing the plates twice with Dulbecco's phosphate-buffered saline (dPBS), autologous and previously irradiated (3,000 rad) EBV-B cells (APC) were first added to each well at a concentration of 1×10^5 cells per well. The cells (APC) were cultured together with either a core histone peptide or a control peptide for 6 hours in HL-1 serum free medium (Bio Whittaker, Maryland). This procedure was followed by the addition to each well of CD4^+ T cells from the short-term lines at a concentration of 1×10^5 cells per well, and the addition of 0.5 micrograms per milliliter of a mouse monoclonal antibody (mAb) to human CD28. The final volume of the cultures was 200 microliters per well. Cells were co-cultured for 24 hours at 37° C. One-half the volume of supernatant was collected from each well for ELISA analysis of interleukin levels. Fresh medium (100 microliters) was added to cells, and the cells were incubated an additional 48 hours. [^3H] thymidine was added, and the cultures were incubated an additional 18 hours. Incorporated radioactivity was measured to quantitate T cell proliferation as described previously (Desai-Mehta et al., 1995, J. Clin. Invest. 95:53 1-541). HLA class II dependence of antigen-specific responses by the CD4^+ T cells was determined by adding to the co-cultures a blocking antibody from a panel of mAb to HLA class II molecules, as described previously (Desai-Mehta et al., 1995, J. Clin. Invest. 95:53 1-541).
IL-2 secreted by CD4^+ T cells in short term experiments was measured using an ELISA. Capture and biotinylated antibody pairs directed at human IL-2 and standards for use therein were purchased from PharMingen. […]

[2] = system: pathogenic Th clones from SNF1 mice; test: Stimulation of nucleosome-specific pathogenic Th clones from SNF1 mice by eluted/synthetic peptides; format: cell-based, mouse; settings: A20 or splenic B+Mφ as APC
Procedure: Fresh splenic, CD4^+ T cells (5×10^5/well) were co-cultured in triplicate wells at an initial concentration of 5×10^5 cells per well, with 10^6 cells per well of either irradiated B+Mφ or mitomycin-C treated A20 APC. Varying concentrations of either control or test peptides were added and the cultures were adjusted to 200 microliters final volume of HL-1 serum-free medium (Hycor Biomedical Inc., Irvine, Calif.) cultures were incubated for 96 hours in flat bottom 96-well plates, and at 18 hours prior to harvesting the cells, 1 microcurie of 3H-Thymidine was added to each well. The incorporated radioactivity was measured by scintillation counting. The Stimulation Index (SI) was calculated by dividing the mean counts per minute (cpm) incorporated in co-cultures of T cells and APC with test peptide by the mean cpm incorporated in control peptide co-cultures. In the case of cytokine assays, experiments were carried out as described for the proliferation assays except that the culture supernatants were removed from duplicate co-culture wells after 24-46 hours of incubation and cytokine assays were performed.
An aliquot of 50 microliters from each HPLC fraction was assayed for stimulating ability as described above. Four characterized Th clones were used as indicators of cytokine secretion (IL-2 and/or IL-4) in response to the peptide fractions, using A20 or splenic B+Mψ as APCs (Adams, et al., 1991, Proc. Natl. Acad. Sci. USA 88:11271-11275; Shi, et al., 1998, J. Exp. Med. 187:367-378). […] Only two out of one hundred fractions tested were able to stimulate Th cell clones. […] The latter was further separated as described, and tested for active fractions of HPLC purified peptides.. Three naturally processed and presented, stimulatory epitopes were identified using these procedures. The sequences of the peptides are as follows: SQKEEEEGAQREKE (EP-1, SEQ ID NO: 23); DWMEEEHGAQREKE (EP-2, SEQ ID NO: 24); and […] (EP-3, or H522-42, SEQ ID NO: 25). The first two peptides were homologous to sequences in a transcription factor, BRN-3, which is identical in chicken, mice and humans (GenBank). […] EP-1 is highly homologous to EP-2, but it also matched a sequence in cytomegalovirus envelope protein at aa position 57-70. Most likely these peptides are derived from some transcription factor in the chromatin that was incubated with the APC. The third sequence (EP-3) was derived from histone H5 (aa position 22-42) in chicken nucleosome, which is homologous to histone H1 sequence of mice and humans at amino acid position 22-42 ([…], SEQ ID NO:26). […] Therefore, the mouse H122-42 is the autoantigenic peptide in mice and is also referred to herein as EP-3. Nested sequences and unrelated sequences that were obtained in the active fractions from the eluates were also synthesized and re-tested.

[3] = system: SNF1 mice; test: Acceleration of SLE-associated nephritis by immunization with eluted peptides in adjuvant; format: in vivo, mouse; settings: immunization from 12 weeks
Text: The animals received three more injections at two weeks interval with 50 micrograms of either an eluted peptide or the control peptide absorbed on alum (Pierce Chemical Co., Rockford, Ill.).

[4] = system: CD4+ T cell clone DD2; test: IL-2 production by lupus Th cell clone DD2 in response to histone peptides; format: cell-based, human; settings: background with APC without peptide 132
Procedure: Short-term T cell lines were rapidly thawed from liquid nitrogen and expanded in the presence of plate-bound anti-CD3 mAb, anti-CD28 mAb, and rIL-2 (20 units per milliliter). The expanded cells were transferred to fresh culture wells and rested by incubating in fresh medium for 10 to 14 days. For stimulation assays, 96 well plates were coated with 2 micrograms per milliliter of goat anti-mouse IgG antibodies overnight at 37° C. After washing the plates twice with Dulbecco's phosphate-buffered saline (dPBS), autologous and previously irradiated (3,000 rad) EBV-B cells (APC) were first added to each well at a concentration of 1×10^5 cells per well. The cells (APC) were cultured together with either a core histone peptide or a control peptide for 6 hours in HL-1 serum free medium (Bio Whittaker, Maryland). This procedure was followed by the addition to each well of CD4^+ T cells from the short-term lines at a concentration of 1×10^5 cells per well, and the addition of 0.5 micrograms per milliliter of a mouse monoclonal antibody (mAb) to human CD28. The final volume of the cultures was 200 microliters per well. Cells were co-cultured for 24 hours at 37° C. One-half the volume of supernatant was collected from each well for ELISA analysis of interleukin levels. Fresh medium (100 microliters) was added to cells, and the cells were incubated an additional 48 hours. [^3H] thymidine was added, and the cultures were incubated an additional 18 hours. Incorporated radioactivity was measured to quantitate T cell proliferation as described previously (Desai-Mehta et al., 1995, J. Clin. Invest. 95:53 1-541). HLA class II dependence of antigen-specific responses by the CD4^+ T cells was determined by adding to the co-cultures a blocking antibody from a panel of mAb to HLA class II molecules, as described previously (Desai-Mehta et al., 1995, J. Clin. Invest. 95:53 1-541). […]
IL-2 secreted by CD4^+ T cells in short term experiments was measured using an ELISA. […]

Substance: H416-30: 15-mer histone H4 peptide, positions 16-30
- IL-2 production response, percentage of maximal response stimulated by anti-CD3 mAb ([1]; average of 10 lupus T cell lines, baseline 22%): 23±2.6%

Substance: H449-63: histone peptide of H4, positions 49-63 (LIYEETRGVLKVFLE)
- HLA class II dependence of peptide presentation ([1]; short-term T cell line L-EB, autologous EBV-B cells, blocking mAb): inhibited mainly by anti-DR mAb

Substance: SQKEEEEGAQREKE (Histone fragment) [EP-1]
- stimulation of pathogenic Th clones [2]: stimulatory
- onset/rate of disease relative to control group (CFA alone or OVA peptide in CFA) [3]: did not result in any increase in the rate of disease

Substance: anti-CD3: Anti-CD3 antibody (mAb) produced by hybridoma OKT3, positive control stimulus [reference compound]
- IL-2 production by T cell clone DD2 [4]: 554 picograms per milliliter
